Here are results for four molecules from patent US9855243B2, “Topical anti-inflammatory pharmaceutical composition with zileuton cream formulation” (Qurient Co., Ltd., priority 2013, dated 2018).

Data set [1] in a line: Physical stability, phase separation checked with the naked eye. It counts as physicochemical. The note with it: solvent screened in cream composition. The source says: This is a test to discover an optimized processing method for obtaining a cream formulation.
Data set [2] in a line: Screening of excipient suitability: zileuton with excipient, stability at 50° C. The note with it: changes of TRS % up to 4 weeks at 50° C. It counts as physicochemical. As to the method: Suitability of components generally used in cream formulation with respect to zieluton was screened, prior to preparing a zieluton cream formulation. […] That is, the stability of excipient at 50° C. was tested.

In the case of `CN1CCCC1=O` [NMP, N-methyl pyrrolidone], the “Physical stability of cream made with this solvent” value (shortened to “Physical stability of cream made”) in data set [1] is “bad physical stability”.

With `CCO` [ethanol], the “Physical stability of cream made” value in data set [1] is recorded as “deteriorates physical stability”.

As for `CCCCCCCCCCCCCCCCCCO` [stearyl alcohol], the “Suitability of excipient with respect to zileuton” value in data set [2] is recorded as “suitable”.

With `OCc1ccccc1` [benzyl alcohol], in data set [1], the “Physical stability of cream made” value is recorded as “bad physical stability”.
